# Measured values from patent US8747537B2, “Ink containing heterocyclic azo dye, and dye for use in said ink” (Mitsubishi Chemical Corporation, priority 2010, dated 2014).
# Assays:
# [1] = Solubility test in low-polarity solvents (saturated solution, λmax, solubility, εC); assay type: physicochemical; conditions: for Solubility: saturated solution
# Experimental: The solubility of each dye in n-decane, tetradecane, Isopar M, Isopar G, and decalin was examined in the following manner. Each dye was added to each solvent until a dissolution residue came to remain, and this mixture was subjected to a 30-minute ultrasonic treatment at 30 degrees. The resultant mixture was allowed to stand at 5° C. for 24 hours and then subjected to centrifugal filtration (centrifugal force, 5,200×g) with a 0.1-μm filter using a microcentrifuge. The saturated solution obtained was diluted to an adequate concentration, and the solubility of each dye was calculated from a relationship with an extinction coefficient determined beforehand. Furthermore, the value of the product of the molar extinction coefficient ε (Lmol^−1cm^−1) and the concentration C (molL^−1) of the saturated solution, εC, was determined.
# Sudan Black B (manufactured by Tokyo Kasei Kogyo Co., Ltd.), which is a commercial oil-soluble black dye, was added to n-decane until a dissolution residue came to remain, and this mixture was subjected to a 30-minute ultrasonic treatment at 30 degrees. The resultant mixture was allowed to stand at 5° C. for 24 hours and then subjected to centrifugal filtration (centrifugal force, 5,200×g) with a 0.1-μm filter using a microcentrifuge. The saturated n-decane solution obtained was diluted to an adequate concentration, and the solubility of the dye was calculated from a relationship with an extinction coefficient determined beforehand.
# [2] = Light fastness test (retention of dye after 2 hours of high-pressure mercury lamp irradiation); assay type: physicochemical; conditions: 1 mg in 250 mL, 2 hours irradiation
# Experimental: The light fastness of each dye was examined in the following manner. One milligram of each dye was dissolved in 250 mL of each of n-decane, tetradecane, Isopar M, and Isopar G, and the solution was irradiated with light for 2 hours using photoreaction apparatus UVL-400HA (400-W high-pressure mercury lamp), manufactured by Riko-Kagaku Sangyo Co., Ltd. During the irradiation, the vessel was cooled with a coolant to keep the internal temperature at 10-30° C. The retention of the dye was determined through the following calculation to evaluate the light fastness. Retention of dye=(absorbance at absorption-maximum wavelength after irradiation)/(absorbance at absorption-maximum wavelength before irradiation)
structure (smiles),measurement,setting,value
CCCCC(CC)CN(CC(CC)CCCC)c1ccc(N=Nc2snc(C)c2C#N)c(NC(C)=O)c1 (stereo not shown) [Dye 2],εC,[1]; Isopar G,5000 cm⁻¹
same,λmax (absorption-maximum wavelength),[1]; Isopar G solution,542 nm
same,Solubility,[1]; Isopar G,5.7%
same,εC,[1]; Isopar M,4000 cm⁻¹
same,λmax (absorption-maximum wavelength),[1]; Isopar M solution,544 nm
same,Solubility,[1]; Isopar M,4.32%
same,εC,[1]; decalin,24000 cm⁻¹
same,λmax (absorption-maximum wavelength),[1]; decalin solution,547 nm
same,Solubility,[1]; decalin,24.5%
same,εC (molar extinction coefficient × concentration of saturated solution),[1]; n-decane,6600 cm⁻¹
same,λmax (absorption-maximum wavelength),[1]; n-decane solution,543 nm
same,Solubility,"[1]; n-decane, stood at 5° C. for 24 hours, 0.1-μm filter",7.9%
same,εC,[1]; tetradecane,4900 cm⁻¹
same,λmax (absorption-maximum wavelength),[1]; tetradecane solution,545 nm
same,Solubility,[1]; tetradecane,5.4%
same,Light fastness: retention of dye,[2]; Isopar G,100%
same,Light fastness: retention of dye,[2]; Isopar M,100%
same,Light fastness: retention of dye,"[2]; n-decane, 400-W high-pressure mercury lamp",97%
same,Light fastness: retention of dye,[2]; tetradecane,94%
